Laboratory results taken from patent US20190358247A1 (The Medical College of Wisconsin, Inc., priority 2016, published 2019).

System: MiaPaCa-2 cells
Experiment: Three-dimensional spheroid growth in Matrigel
Assay type: cell-based, human
Procedure: Three-dimensional spheroid cell cultures of PDAC. MiaPaCa-2 cells (5,000) were seeded in 96-well plates containing Matrigel (Corning), used as scaffold. This typical 3D-cell culture system allows spheroids to form within the matrix. […] At days 3, 7, and 14 the wells were observed by bright-field microscopy and images acquired on a Nikon Eclipse Ti inverted microscope (Nikon instrument Inc., NY, USA). Spheroid-forming cells were counted using the Nikon NIS Elements imaging software (Nikon). Data are expressed as mean and SD of number of spheroids.
We tested the antiproliferative effects of Mito-Met and Met in the multicellular spheroid model (FIG. 11A). MiaPaCa-2 cells were cultured for 14 days in Matrigel and treated with Mito-Met10 and Met.

Br.N=C(N)NC(=N)NCCCCCCCCCC[P+](c1ccccc1)(c1ccccc1)c1ccccc1 [Mito-Met10]
fold more effective than Met in inhibiting PDAC proliferation, 2D and 3D cell growth assays: 1,000- to 10,000 fold
PDAC spheroid growth (0.5 μM, 14 days): potently inhibited PPAC spheroid growth
